Measurements as given in ChEMBL document CHEMBL1201862, “PubChem BioAssay data set” (2004).
Active and inactive are the calls of the source.

Legend:
[1] = target: ADP-ribosylation factor GTPase-activating protein 1 (Rattus norvegicus, UniProt Q62848); test: Fluorescence polarization-based biochemical high throughput dose response screening assay to identify inhibitors of ADP-ribosylation factor GTPase activating protein 1 (ARFGAP1).; assay type: functional
[2] = target: G-protein coupled receptor 55 (Homo sapiens, UniProt Q9Y2T6); test: inhibition of LPI-stimulated GPR55 beta-arrestin translocation – imaging, U2OS, beta-arrestin-GFP, LPI agonist, primary screen (AID 2013); assay type: functional;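 also: antagonist potency measured as reduced agonist-driven arrestin aggregation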
Chain of G-protein coupled receptor 55 (Q9Y2T6 whole entry): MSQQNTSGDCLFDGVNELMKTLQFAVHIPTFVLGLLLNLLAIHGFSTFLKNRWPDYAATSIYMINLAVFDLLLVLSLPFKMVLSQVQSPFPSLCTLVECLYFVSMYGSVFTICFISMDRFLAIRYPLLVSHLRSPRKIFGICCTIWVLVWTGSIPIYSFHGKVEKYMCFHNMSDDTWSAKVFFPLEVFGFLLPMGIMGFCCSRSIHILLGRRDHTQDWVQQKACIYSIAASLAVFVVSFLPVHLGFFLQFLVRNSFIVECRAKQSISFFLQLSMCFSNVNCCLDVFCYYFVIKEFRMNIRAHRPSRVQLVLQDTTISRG

[3] = target: T1, Tyrosine-protein phosphatase non-receptor type 11 (Homo sapiens, UniProt Q06124); test: PTPN11 enzyme inhibitors – biochemical, selectivity assay for STEP inhibitor project, dose response (AID 602367); assay type: functional; details: read-out: IC50_Mean
T1 sequence (Q06124 whole entry): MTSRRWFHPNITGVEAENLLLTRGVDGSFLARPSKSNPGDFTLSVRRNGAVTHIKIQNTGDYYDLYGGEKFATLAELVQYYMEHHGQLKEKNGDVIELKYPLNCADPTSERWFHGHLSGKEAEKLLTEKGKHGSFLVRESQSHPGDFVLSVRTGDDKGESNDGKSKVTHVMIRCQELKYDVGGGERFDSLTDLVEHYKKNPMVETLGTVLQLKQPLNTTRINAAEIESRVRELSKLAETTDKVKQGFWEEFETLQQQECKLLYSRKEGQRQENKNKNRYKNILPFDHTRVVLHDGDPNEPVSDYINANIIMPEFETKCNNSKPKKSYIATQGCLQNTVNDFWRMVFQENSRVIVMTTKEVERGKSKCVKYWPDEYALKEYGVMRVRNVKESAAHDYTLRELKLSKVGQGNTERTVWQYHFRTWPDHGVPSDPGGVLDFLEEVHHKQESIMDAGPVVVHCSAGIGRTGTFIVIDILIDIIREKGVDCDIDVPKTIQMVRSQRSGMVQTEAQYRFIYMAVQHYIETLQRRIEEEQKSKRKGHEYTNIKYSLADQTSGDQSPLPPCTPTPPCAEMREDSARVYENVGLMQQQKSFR

[4] = target: T2, Tyrosine-protein phosphatase non-receptor type 5 (Homo sapiens, UniProt P54829); test: PTPN5 enzyme inhibition – biochemical, fluorescence intensity, uHTS hits, confirmation (AID 602372); assay type: functional; details: read-out: IC50_Mean
T2 sequence (P54829 whole entry): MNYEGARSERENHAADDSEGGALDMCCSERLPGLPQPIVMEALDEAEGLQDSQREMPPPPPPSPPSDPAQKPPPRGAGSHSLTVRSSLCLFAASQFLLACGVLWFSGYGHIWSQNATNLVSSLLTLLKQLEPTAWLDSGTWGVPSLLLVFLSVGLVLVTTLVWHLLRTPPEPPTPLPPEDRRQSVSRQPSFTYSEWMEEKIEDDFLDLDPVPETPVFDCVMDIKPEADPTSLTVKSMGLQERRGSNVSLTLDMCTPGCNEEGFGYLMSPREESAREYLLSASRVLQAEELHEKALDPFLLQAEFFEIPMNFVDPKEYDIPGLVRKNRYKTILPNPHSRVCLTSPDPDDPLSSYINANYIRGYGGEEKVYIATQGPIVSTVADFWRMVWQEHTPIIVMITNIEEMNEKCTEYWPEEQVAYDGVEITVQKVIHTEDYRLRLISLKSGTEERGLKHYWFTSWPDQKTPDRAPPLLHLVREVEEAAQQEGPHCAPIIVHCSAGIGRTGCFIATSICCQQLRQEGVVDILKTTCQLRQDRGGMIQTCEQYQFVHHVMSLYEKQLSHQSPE

[5] = target: Dual specificity protein phosphatase 3 (Homo sapiens, UniProt P51452); test: VHR phosphatase inhibition, dose response, selectivity assay for STEP inhibitor project, biochemical (AID 602374); assay type: functional; details: read-out: IC50_Mean
Chain of Dual specificity protein phosphatase 3 (P51452 whole entry): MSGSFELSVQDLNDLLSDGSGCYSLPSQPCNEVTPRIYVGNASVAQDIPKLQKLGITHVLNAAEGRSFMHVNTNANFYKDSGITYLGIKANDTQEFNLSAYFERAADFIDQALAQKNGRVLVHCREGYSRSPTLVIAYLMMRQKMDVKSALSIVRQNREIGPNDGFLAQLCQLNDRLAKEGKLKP

[6] = target: Tyrosine-protein phosphatase non-receptor type 22 (Homo sapiens, UniProt Q9Y2R2); test: lymphoid phosphatase LYP inhibitors – biochemical, selectivity assay for STEP inhibitor project, dose response (AID 624241); assay type: functional
Chain of Tyrosine-protein phosphatase non-receptor type 22 (Q9Y2R2 whole entry): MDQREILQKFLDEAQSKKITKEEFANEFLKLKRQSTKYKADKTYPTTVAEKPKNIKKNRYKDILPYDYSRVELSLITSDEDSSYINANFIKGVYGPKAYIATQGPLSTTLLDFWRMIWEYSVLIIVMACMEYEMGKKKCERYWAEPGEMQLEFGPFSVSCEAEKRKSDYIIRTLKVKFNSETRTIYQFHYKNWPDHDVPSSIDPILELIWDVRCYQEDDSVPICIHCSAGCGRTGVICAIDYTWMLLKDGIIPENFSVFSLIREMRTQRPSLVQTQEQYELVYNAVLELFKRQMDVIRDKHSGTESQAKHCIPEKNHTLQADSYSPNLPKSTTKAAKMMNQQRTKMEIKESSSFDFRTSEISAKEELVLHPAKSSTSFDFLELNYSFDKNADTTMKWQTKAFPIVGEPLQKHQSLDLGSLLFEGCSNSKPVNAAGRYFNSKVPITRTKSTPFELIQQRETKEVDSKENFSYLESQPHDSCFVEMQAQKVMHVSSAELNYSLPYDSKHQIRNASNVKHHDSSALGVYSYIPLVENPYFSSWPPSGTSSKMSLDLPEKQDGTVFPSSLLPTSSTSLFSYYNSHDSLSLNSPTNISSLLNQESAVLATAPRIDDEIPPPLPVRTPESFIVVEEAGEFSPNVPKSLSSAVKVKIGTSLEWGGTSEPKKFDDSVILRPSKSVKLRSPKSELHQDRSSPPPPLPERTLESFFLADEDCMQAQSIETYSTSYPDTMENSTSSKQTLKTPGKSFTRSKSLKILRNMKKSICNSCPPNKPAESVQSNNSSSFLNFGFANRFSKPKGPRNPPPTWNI

Nonstructural protein 1 = Nonstructural protein 1 (Influenza A virus, UniProt Q194T2); assay type: functional, Influenza A virus (A/California/07/2009(H1N1))
Chain of Nonstructural protein 1 (Q194T2 whole entry): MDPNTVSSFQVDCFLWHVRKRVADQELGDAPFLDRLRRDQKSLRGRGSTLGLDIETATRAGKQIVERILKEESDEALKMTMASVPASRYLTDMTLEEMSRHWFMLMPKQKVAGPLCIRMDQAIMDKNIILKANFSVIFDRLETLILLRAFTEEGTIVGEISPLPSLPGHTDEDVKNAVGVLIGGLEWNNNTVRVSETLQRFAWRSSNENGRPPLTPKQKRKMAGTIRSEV

[7] = viability loss in HeLa cells – cytotoxicity control for MgcRacGAP inhibitor project, dose response (AID 624300); assay type: functional
[8] = target: T3, Rac GTPase-activating protein 1 (Homo sapiens, UniProt Q9H0H5); test: blockers of MgcRacGAP-driven Rac1 GTP hydrolysis – biochemical, ADP Hunter fluorescence, primary and confirmatory, confirmation (AID 624330); assay type: functional
T3 sequence (Q9H0H5 whole entry): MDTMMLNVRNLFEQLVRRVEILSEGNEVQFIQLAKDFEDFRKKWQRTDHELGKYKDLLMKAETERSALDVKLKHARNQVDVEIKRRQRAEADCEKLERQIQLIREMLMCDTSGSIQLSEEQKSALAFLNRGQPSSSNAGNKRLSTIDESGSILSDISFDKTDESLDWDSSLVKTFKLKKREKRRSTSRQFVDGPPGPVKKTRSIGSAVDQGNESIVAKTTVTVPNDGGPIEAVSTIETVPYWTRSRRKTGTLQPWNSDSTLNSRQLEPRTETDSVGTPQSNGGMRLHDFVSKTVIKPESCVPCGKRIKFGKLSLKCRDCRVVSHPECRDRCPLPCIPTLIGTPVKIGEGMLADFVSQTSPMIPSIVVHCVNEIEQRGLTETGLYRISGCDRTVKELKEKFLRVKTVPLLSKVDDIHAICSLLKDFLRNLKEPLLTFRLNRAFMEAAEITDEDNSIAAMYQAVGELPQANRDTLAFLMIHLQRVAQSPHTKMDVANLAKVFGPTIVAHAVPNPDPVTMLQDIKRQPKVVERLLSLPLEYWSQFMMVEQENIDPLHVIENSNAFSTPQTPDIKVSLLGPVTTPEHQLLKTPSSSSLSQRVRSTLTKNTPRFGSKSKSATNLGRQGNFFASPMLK

[9] = Counterscreen for inhibitors of Trypanosoma brucei methionyl tRNA synthetase (MetRS): Luminescence-based cell-based high throughput dose response assay to identify compounds that are cytotoxic to Jurkat human T lymphocyte cells.; assay type: functional; details: Homo sapiens, Jurkat
[10] = target: T4, Methionyl-tRNA synthetase, putative (Trypanosoma brucei brucei, UniProt Q38C91); assay type: functional, Trypanosoma brucei brucei strain 927/4 GUTat10.1
T4 sequence (Q38C91 whole entry): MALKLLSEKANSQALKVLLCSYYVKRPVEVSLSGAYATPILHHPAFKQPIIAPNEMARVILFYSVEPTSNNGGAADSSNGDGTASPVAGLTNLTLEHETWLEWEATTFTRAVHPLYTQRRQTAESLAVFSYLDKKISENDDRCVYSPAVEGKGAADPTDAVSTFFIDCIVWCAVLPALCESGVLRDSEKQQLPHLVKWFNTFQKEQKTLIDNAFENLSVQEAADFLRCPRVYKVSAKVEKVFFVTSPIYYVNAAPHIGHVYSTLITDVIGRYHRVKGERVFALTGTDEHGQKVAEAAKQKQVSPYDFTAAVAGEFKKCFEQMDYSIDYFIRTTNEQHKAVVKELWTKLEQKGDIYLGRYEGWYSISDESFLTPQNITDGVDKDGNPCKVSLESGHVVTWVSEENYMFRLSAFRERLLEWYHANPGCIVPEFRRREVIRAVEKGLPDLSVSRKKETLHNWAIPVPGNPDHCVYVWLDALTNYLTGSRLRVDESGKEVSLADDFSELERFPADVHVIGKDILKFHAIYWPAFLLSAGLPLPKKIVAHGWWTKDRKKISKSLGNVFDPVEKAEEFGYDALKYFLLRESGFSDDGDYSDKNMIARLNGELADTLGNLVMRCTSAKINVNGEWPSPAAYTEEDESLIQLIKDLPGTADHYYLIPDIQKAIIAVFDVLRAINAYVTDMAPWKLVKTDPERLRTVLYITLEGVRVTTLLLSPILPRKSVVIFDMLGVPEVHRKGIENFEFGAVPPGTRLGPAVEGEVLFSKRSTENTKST

[11] = target: T4, Methionyl-tRNA synthetase, putative; assay type: functional, Trypanosoma brucei brucei strain 927/4 GUTat10.1; remark: listed apart in the source
[12] = THP-1 cell cytotoxicity, dose response, cytotoxicity control for non-replicating M. tuberculosis project (AID 489025); assay type: functional
[13] = Vero E6 cell cytotoxicity, dose response, cytotoxicity control for non-replicating M. tuberculosis project, secondary assay (AID 492998); assay type: functional, VeroE6; details: Vero C1008
cells = assay type: functional
[14] = target: T5, Replicative DNA helicase DnaB (Mycobacterium tuberculosis, UniProt P9WMR3); test: DnaB intein splicing inhibitors, dose response, biochemical, cell-free fluorescence (AID 449749); assay type: functional
T5 sequence (P9WMR3 whole entry): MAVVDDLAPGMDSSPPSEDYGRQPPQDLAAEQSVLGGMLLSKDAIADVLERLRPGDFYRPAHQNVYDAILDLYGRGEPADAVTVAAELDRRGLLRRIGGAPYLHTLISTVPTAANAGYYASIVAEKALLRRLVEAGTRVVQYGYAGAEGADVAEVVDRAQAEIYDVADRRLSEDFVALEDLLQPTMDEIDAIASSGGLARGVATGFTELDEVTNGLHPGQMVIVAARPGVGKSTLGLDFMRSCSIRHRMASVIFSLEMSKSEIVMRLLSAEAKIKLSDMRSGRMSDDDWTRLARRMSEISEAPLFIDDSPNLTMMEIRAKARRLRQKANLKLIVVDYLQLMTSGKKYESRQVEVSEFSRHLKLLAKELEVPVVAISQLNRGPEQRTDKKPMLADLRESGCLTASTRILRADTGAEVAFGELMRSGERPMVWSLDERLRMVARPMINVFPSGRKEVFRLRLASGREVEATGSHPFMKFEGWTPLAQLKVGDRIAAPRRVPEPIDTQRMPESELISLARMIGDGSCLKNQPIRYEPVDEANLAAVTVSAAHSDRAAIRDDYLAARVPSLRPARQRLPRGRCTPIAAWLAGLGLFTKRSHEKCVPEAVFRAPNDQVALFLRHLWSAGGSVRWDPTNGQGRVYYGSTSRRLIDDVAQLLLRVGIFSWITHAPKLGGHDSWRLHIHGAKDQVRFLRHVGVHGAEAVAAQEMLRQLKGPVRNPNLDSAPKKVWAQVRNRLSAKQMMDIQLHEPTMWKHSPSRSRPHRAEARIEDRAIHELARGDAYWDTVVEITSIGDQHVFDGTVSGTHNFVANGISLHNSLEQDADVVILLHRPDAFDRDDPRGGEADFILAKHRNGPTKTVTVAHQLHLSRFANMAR

Protein RecA = target: T6, Protein RecA (Mycobacterium tuberculosis, UniProt P9WHJ3); test: Fluorescence Cell-Free Homogeneous Dose Retest to Identify Inhibitors of RecA-Intein Splicing Activity. [Related pubchem assays (depositor defined):AID2097, AID2223, AID489010, AID492950]; assay type: functional
T6 sequence (P9WHJ3 whole entry): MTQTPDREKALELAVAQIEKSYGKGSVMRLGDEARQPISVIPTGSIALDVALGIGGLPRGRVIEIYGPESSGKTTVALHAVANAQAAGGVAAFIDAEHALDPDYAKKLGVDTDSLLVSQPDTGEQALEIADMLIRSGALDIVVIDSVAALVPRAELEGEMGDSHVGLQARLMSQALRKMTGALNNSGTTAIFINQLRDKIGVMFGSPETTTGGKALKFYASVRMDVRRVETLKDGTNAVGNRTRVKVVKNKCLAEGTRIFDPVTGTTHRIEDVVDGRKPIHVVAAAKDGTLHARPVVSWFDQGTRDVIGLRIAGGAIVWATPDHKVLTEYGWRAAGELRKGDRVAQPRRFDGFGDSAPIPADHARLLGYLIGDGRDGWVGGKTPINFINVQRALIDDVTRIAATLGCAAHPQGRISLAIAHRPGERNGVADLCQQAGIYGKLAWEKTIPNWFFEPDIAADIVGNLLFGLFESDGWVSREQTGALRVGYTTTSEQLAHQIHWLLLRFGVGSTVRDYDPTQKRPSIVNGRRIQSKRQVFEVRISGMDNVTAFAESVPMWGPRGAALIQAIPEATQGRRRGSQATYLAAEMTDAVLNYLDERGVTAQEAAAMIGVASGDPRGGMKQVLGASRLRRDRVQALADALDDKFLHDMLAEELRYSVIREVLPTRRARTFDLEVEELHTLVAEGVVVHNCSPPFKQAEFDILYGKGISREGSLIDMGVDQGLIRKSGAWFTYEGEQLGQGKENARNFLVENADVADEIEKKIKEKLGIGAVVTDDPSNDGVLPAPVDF

[15] = Fluorescence-based cell-based high throughput dose response assay for inhibitors of the interaction of nucleotide-binding oligomerization domain containing 2 (NOD2) and the receptor-interacting serine-threonine kinase 2 (RIPK2).; assay type: functional; details: Homo sapiens
[16] = target: T7, Low molecular weight phosphotyrosine protein phosphatase (Homo sapiens, UniProt P24666); assay type: functional; details: read-out: IC50_Mean
T7 sequence (P24666 whole entry): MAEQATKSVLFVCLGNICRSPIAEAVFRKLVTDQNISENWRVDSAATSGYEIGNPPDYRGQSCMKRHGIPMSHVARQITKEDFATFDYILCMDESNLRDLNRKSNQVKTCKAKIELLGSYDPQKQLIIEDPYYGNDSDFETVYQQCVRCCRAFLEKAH

Chain of ADP-ribosylation factor GTPase-activating protein 1 (Q62848 whole entry): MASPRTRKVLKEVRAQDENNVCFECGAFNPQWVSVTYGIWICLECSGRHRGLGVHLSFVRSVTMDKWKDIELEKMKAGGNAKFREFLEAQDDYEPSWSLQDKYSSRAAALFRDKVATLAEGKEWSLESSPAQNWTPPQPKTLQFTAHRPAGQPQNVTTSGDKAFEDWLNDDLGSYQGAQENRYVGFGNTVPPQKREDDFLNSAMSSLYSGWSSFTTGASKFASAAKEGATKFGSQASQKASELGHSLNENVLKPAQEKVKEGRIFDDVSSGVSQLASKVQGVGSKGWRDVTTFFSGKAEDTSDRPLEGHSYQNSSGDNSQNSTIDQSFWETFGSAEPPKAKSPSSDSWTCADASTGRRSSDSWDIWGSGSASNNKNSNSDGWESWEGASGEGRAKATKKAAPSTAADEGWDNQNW

Cc1cc(OCC(=O)Nc2cccnc2)c2c(C)c(C)c(=O)oc2c1
IC50 [1]: 64.9 µM (inactive)

COc1ccccc1NS(=O)(=O)c1cc(NC(=S)NCCN2CCOCC2)ccc1N1CCOCC1
IC50 [2]: 3.2 µM (active) | IC50 [3]: 891 nM (active) | IC50 [4]: 8.37 µM (active) | IC50 [5]: 498 nM (active) | IC50 [6]: 31.4 µM (inactive)

COc1ccc2c(c1)-c1c(ssc1=S)C(C)(C)N2
IC50 (Nonstructural protein 1): 22.7 µM (active) | CC50 [7]: 100 µM (active) | IC50 [8]: 29.4 µM (active)

O=S(=O)(c1ccc2[nH]c(SCc3ccc(Cl)cc3)nc2c1)N1CCOCC1
IC50 [9]: 16.9 µM (inactive)

O=S(=O)(c1ccc2nc(SCc3ccc(Cl)cc3)[nH]c2c1)N1CCOCC1
IC50 [10]: 32.3 µM (inactive) | IC50 [11]: 30.8 µM (inactive)

Cc1noc2ncnc(Sc3ccccc3Cl)c12
CC50 [12]: 20.2 µM (active) | CC50 [13]: 16.9 µM (active) | IC50 (cells): 9.99 µM (active) | AC50 [14]: 12.2 µM (active) | EC50 (Protein RecA): 4.04 µM (active) | IC50 [15]: 4.4 µM (active)

NC(=S)NN=C1Cc2cccc3cccc1c23
IC50 [16]: 4.94 µM (active)
